This note sets out measurements from patent publication US20210030867A1, “ADJUVANT COMPOSITION CONTAINING ALUMINUM AND VACCINE COMPOSITION CONTAINING THE SAME” (TERUMO KABUSHIKI KAISHA, priority 2015, published 2021).

Assay [1] can be described thus: Release test (measurement of leakage; membrane-disruption function). The settings on record: for pH 5.0 Leakage (%) Lb5.0 Amphipathic substance alone / pH 7.4 Leakage (%) Lb7.4 Amphipathic substance alone: labelled amphipathic substance alone; for pH 5.0 Leakage (%) La5.0 pH-sensitive compound alone / pH 7.4 Leakage (%) La7.4 pH-sensitive compound alone: labelled pH-sensitive compound alone. Here is the method:
The term “membrane-disruption function” means a function to bring about release in the release test. The release test described herein is a test consisting of the steps of adding liposomes (dispersion) embracing an aqueous solution containing a quenching substance and a fluorescent substance and a dispersion of an evaluation sample to a properly pH-adjusted aqueous solution, incubating the resulting aqueous solution at 37° C. for 90 minutes or 30 minutes, and measuring the intensity of fluorescence of the incubated aqueous solution. This method makes it possible to measure the amount of the fluorescent substance which has been released from the liposomes, and to confirm the membrane-disruption function of the pH-sensitive carrier. Note that the release test will be described in more detail in the Examples to be described later.
The leakage was evaluated according to the method described in K. Kono et al., Bioconjugate Chem. 2008 19 1040-1048. The evaluation was performed using EYPC liposomes which contain Pyranine as a fluorescent substance and DPX as a quencher.
3,000 nmol of EYPC dissolved in chloroform was measured and placed in a 10-mL eggplant-shaped flask, and the EYPC was made into thin film by means of a rotary evaporator. To the flask was added 500 μL of a Pyranine solution (Pyranine: 35 mM, DPX: 50 mM, MES: 25 mM, pH 7.4), followed by dispersion using an ultrasonic irradiator (USC-J), and then the resulting dispersion was passed through a polycarbonate film having a pore diameter of 100 nm by use of an extruder, so as to make the particle diameter uniform. The resulting dispersion underwent substitution of the outer aqueous layer using MES Buffer and G100 column, to obtain a dispersion of EYPC liposomes embracing the fluorescent substance. The concentration of the phospholipid was determined using phospholipid C-test Wako, and it was adjusted with MES Buffer so that phospholipid became 1.0 mmol/L.
20 μL of the dispersion of EYPC liposomes adjusted in concentration and 20 μL of an evaluation sample dispersion were added to 2960 μL of pH-adjusted MES Buffer, and the resulting mixture was subjected to incubation at 37° C. for 90 or 30 minutes (Values resulting from incubation for 90 minutes are adopted in Examples, unless otherwise specified.). Fluorescence at Ex461 nm and Em512 nm was observed by use of a spectrophotometer FP-6500 to monitor the leakage.
Note that the leakage was calculated assuming that the value in the case of using the dispersion alone of EYPC liposomes is 0% and the value in the case of adding 30 μL of 10-fold diluted Triton-X100 is 100%. Specifically, the leakage was calculated according to the following formula. Note that in the following formula, L represents the intensity of fluorescence measured, L0 represents the intensity of fluorescence of only the dispersion of EYPC liposomes embracing the fluorescent substance, and L100 represents the intensity of fluorescence in the case of adding Triton-X100.
First, the influence on the effect of promoting the membrane-disruption function was examined. […] After incubating the evaluation samples overnight, part (20 μL) of each evaluation sample was put to a release test. The release test was conducted according to the above-described release test.

Assay [2] deals with cell-mediated immunity (CTL). Put plainly: Induction of cell-mediated immunity (CTL) in immunized mice, IFNγ ELIspot method on spleen cells. Format: in vivo, C57BL/6N mouse.
Experimental: Administration was performed under anesthesia. In the case of subcutaneous administration, it is carried out by subcutaneous injection, 100 μL/head, at one position on the back. […] As for the pH-sensitive carrier, a fundamental dose concentration for the amphipathic substance was 100 nmol/head, that for the pH-sensitive compound was 10 to 640 nmol/head, and part thereof was administered in diluted conditions. As the antigen, OVA protein or OVA peptide was used, the dose being 80 μg/head. […] In the case of evaluating cell-mediated immunity, administration was performed once and assay was conducted seven days after the administration.
The mouse was euthanized on the seventh day after the last administration and had its spleen extracted. After addition of 3.0 mL of RPMI medium containing 10% serum, the spleen was treated by the BD Falcon cell strainer, to obtain a suspension of cells. The cells were subjected to hemolysis with RBC lysis buffer, followed by washing with RPMI medium containing 10% serum. The cells were dispersed into RPMI medium containing 10% serum, after which the number of cells was counted, and a dispersion of spleen cells was obtained.
The ELIspot method was carried out by using the Mouse IFNγ ELISPOT Set. One day before cell inoculation, the 96-well ELispot plate was allowed to adsorb the detection antibody attached to the kit, to make the plate. The thus made plate was washed with RPMI medium containing 10% serum, after which 200 μL of 10% serum-containing RPMI medium was added thereto, and the plate was left to stand at 37° C. for two hours for blocking. The plate was washed with 10% serum-containing RPMI medium. In the case where the antigen undergoes restimulation, 100 μL of 10% serum-containing RPMI medium containing 40 μg/mL of OVA peptide was added to the plate. […]
The candidate substances were all used in an amount of 10 μg per mouse, and OVA protein was used as the antigen in an amount of 80 μg per mouse. […] Induction of cell-mediated immunity was evaluated according to the ELispot method described hereinabove. […]
Setting [3] is: subcutaneous, once, assay after seven days, candidate substance/alum 10 μg, OVA protein 80 μg per mouse, carrier where used 100 nmol DLPC + 160 nmol deoxycholic acid, restimulation with OVA peptide.

Take “Polyoxyethylene 10 castor oil [Peg (10) castor oil]”: in assay [1] (pH 5.0), the “pH 5.0 Leakage (%) Lb5.0 Amphipathic substance alone” value came out at 6.2%. Moreover, the “pH 7.4 Leakage (%) Lb7.4 Amphipathic substance alone” value in assay [1] is listed as 3.4%.
For “polyoxyethylene sorbitan monopalmitic acid ester [Tween 40]” the same measures were 11.5% and 8.3%.
The matching figures for sorbitan monooleate [Span80]: 7.3% and 4.4%.
For the molecule `CC1(C)[C@@H](O[C@H]2O[C@H](C(=O)O)[C@@H](O)[C@H](O)[C@H]2O[C@@H]2O[C@H](C(=O)O)[C@@H](O)[C@H](O)[C@H]2O)CC[C@]2(C)[C@H]3C(=O)C=C4[C@@H]5C[C@@](C)(C(=O)O)CC[C@]5(C)CC[C@@]4(C)[C@]3(C)CC[C@@H]12` [Glycyrrhizinic acid], in assay [1] (pH 5.0), the “pH 5.0 Leakage (%) Lb5.0 Amphipathic substance alone” value is recorded as 4.0% and the “pH 5.0 Leakage (%) La5.0 pH-sensitive compound alone” value amounted to 3.0%. Further, in assay [1], the “pH 7.4 Leakage (%) Lb7.4 Amphipathic substance alone” value stood at 0.3% and the “pH 7.4 Leakage (%) La7.4 pH-sensitive compound alone” value was 0.8%.
With “polyoxyethylene sorbitan monostearic acid ester [Tween 60]”, in assay [1] (pH 5.0), the “pH 5.0 Leakage (%) Lb5.0 Amphipathic substance alone” value was found to be 6.7%. The “pH 7.4 Leakage (%) Lb7.4 Amphipathic substance alone” value in assay [1] came to 3.8%.
For `CCCCCCCCCC(=O)OC[C@H](COP(=O)([O-])OCC[N+](C)(C)C)OC(=O)CCCCCCCCC` [DDPC, 1,2-didecanoyl-sn-glycero-3-phosphatidylcholine] the same measures were 10.1% and 8.4%.
The matching figures for `CCCCCCCCCCCC(=O)OCC(O)COC(=O)CCCCCCCCCCC` [α,α′-dilaurin]: 0.8% and 1.0%.
The matching figures for “polyoxyethylene sorbitan monolauric acid ester [Tween 20]”: 48.8% and 50.4%.
On to sorbitan palimitic acid ester [Span40], for which the “pH 5.0 Leakage (%) Lb5.0 Amphipathic substance alone” value in assay [1] (pH 5.0) amounted to 1.6%. For the same molecule, the “pH 7.4 Leakage (%) Lb7.4 Amphipathic substance alone” value in assay [1] amounted to 0.6%.
The matching figures for `CCCCCCCC/C=C\CCCCCCCC(=O)OCC(O)CO` (centres unmarked) [Glycerol monooleate, glycerol monooleate]: 6.0% and 4.1%.
Regarding `C[C@H](CCC(=O)O)[C@H]1CC[C@H]2[C@@H]3C[C@H](O)[C@@H]4C[C@H](O)CC[C@]4(C)[C@H]3CC[C@]12C` [Hyodeoxycholic acid], the “pH 5.0 Leakage (%) La5.0 pH-sensitive compound alone” value in assay [1] (pH 5.0) came out at 2.8%. Besides, the “pH 7.4 Leakage (%) La7.4 pH-sensitive compound alone” value in assay [1] was found to be 0.6%.
With sorbitan trioleic acid ester [Span85], the “pH 5.0 Leakage (%) Lb5.0 Amphipathic substance alone” value in assay [1] (pH 5.0) was 2.0%. In addition, the “pH 7.4 Leakage (%) Lb7.4 Amphipathic substance alone” value in assay [1] was found to be 1.8%.
`CC(CCC(=O)NCC(=O)O)C1CCC2C3CCC4CC(O)CCC4(C)C3CC(O)C12C` (centres unmarked) [Glycodeoxycholic acid]: the “pH 5.0 Leakage (%) La5.0 pH-sensitive compound alone” value in assay [1] (pH 5.0) is 5.9%. Further, in assay [1], the “pH 7.4 Leakage (%) La7.4 pH-sensitive compound alone” value amounted to 1.6%.
For the molecule sorbitan stearic acid ester [Span60], the “pH 5.0 Leakage (%) Lb5.0 Amphipathic substance alone” value in assay [1] (pH 5.0) is recorded as 4.3%. In assay [1], the “pH 7.4 Leakage (%) Lb7.4 Amphipathic substance alone” value came to 1.6%.
As for `C[C@H](CCC(=O)O)[C@H]1CC[C@H]2[C@@H]3[C@H](O)C[C@@H]4C[C@H](O)CC[C@]4(C)[C@H]3CC[C@]12C` [Chenodeoxycholic acid], the “pH 5.0 Leakage (%) La5.0 pH-sensitive compound alone” value in assay [1] (pH 5.0) came to 3.1%. In addition, in assay [1], the “pH 7.4 Leakage (%) La7.4 pH-sensitive compound alone” value is 1.1%.
Turning to `CC(=O)Oc1c(C)c(C)c2c(c1C)CCC(C)(CCC[C@H](C)CCC[C@H](C)CCCC(C)C)O2` (mixture of isomers) [tocopherol acetate, DL-α-tocopherol acetate, reference compound], the “induction of cell-mediated immunity (spot formation, ELIspot)” value (“induction of cell-mediated immunity” for short) in assay [2] (setting [3]) was “did not induce cell-mediated immunity”.
Consider “polyoxyethylene sorbitan monooleic acid ester [Tween 80]”, for which the “pH 5.0 Leakage (%) Lb5.0 Amphipathic substance alone” value in assay [1] (pH 5.0) is listed as 1.6%. In addition, the “pH 7.4 Leakage (%) Lb7.4 Amphipathic substance alone” value in assay [1] stood at 0.6%.
`CCCCCCCCCCCC(=O)OC[C@H](COP(=O)([O-])OCC[N+](C)(C)C)OC(=O)CCCCCCCCCCC` [DLPC, 1,2-dilauroyl-sn-glycero-3-phosphatidylcholine]: the “pH 5.0 Leakage (%) Lb5.0 Amphipathic substance (DLPC) alone” value in assay [1] (pH 5.0, DLPC alone) was 1.9%.
Take `Cc1c(C)c2c(c(C)c1O)CCC(C)(CCCC(C)CCCC(C)CCCC(C)C)O2` (racemic) [Tocopherol, DL-α-tocopherol]: in assay [2] (mouse, in vivo, sc), the “induction of cell-mediated immunity” value is on record as “did not induce cell-mediated immunity”. Further, in assay [1] (pH 5.0), the “pH 5.0 Leakage (%) Lb5.0 Amphipathic substance alone” value was 1.2%. Also, in assay [1], the “pH 7.4 Leakage (%) Lb7.4 Amphipathic substance alone” value stood at 1.7%.
For the molecule `CCCCCCCCCCCCCCCCCC(=O)OCC(CO)OC(=O)CCCCCCCCCCCCCCCCC` (centres unmarked) [Glycerol distearate, glycerol distearate], the “pH 5.0 Leakage (%) Lb5.0 Amphipathic substance alone” value in assay [1] (pH 5.0) is 4.0%. Further, in assay [1], the “pH 7.4 Leakage (%) Lb7.4 Amphipathic substance alone” value came out at 0.3%.
Take sorbitan tristearic acid ester [Span65]: in assay [1] (pH 5.0), the “pH 5.0 Leakage (%) Lb5.0 Amphipathic substance alone” value came to 4.2%. Further, the “pH 7.4 Leakage (%) Lb7.4 Amphipathic substance alone” value in assay [1] was found to be 1.5%.

B1: antigen alone: OVA protein (Ovalbumin, low endotoxin) administered alone as comparative sample (protein, UniProt P01012 2-386, looked up)
Ovalbumin: GSIGAASMEFCFDVFKELKVHHANENIFYCPIAIMSALAMVYLGAKDSTRTQINKVVRFDKLPGFGDSIEAQCGTSVNVHSSLRDILNQITKPNDVYSFSLASRLYAEERYPILPEYLQCVKELYRGGLEPINFQTAADQARELINSWVESQTNGIIRNVLQPSSVDSQTAMVLVNAIVFKGLWEKAFKDEDTQAMPFRVTEQESKPVQMMYQIGLFRVASMASEKMKILELPFASGTMSMLVLLPDEVSGLEQLESIINFEKLTEWTSSNVMEERKIKVYLPRMKMEEKYNLTSVLMAMGITDVFSSSANLSGISSAESLKISQAVHAAHAEINEAGREVVGSAEAGVDAASVSEEFRADHPFLFCIKHIATNAVLFFGRCVSP
modifications: low endotoxin
As to B1, in assay [2] (setting [3]), the “induction of cell-mediated immunity” value is “did not induce cell-mediated immunity”.
